Reference: patent publication US20250059215A1, “Trifluoroborate (BF3) Compositions For Use In Boron Neutron Capture Therapy and Methods Thereof” (TAE Life Sciences LLC, priority 2023, published 2025)

Assays:
FaDu cells [1] = assay: Uptake of boron compounds in FaDu cells in vitro (Example 7); type: cell-based; conditions: 2.5 mM in HBSS, two (2) hrs; for uptake (boron) in FaDu cells: 37° C., boron by ICP-OES, FaDu compared with U343MG
Description: (§1) In this experiment, the uptake of BPA, FBH FBF, and LBH was carried out to determine which compounds show greater uptake FaDu and U343MG cells. The following protocols were used. Briefly, two (2) assays were performed, one using FaDu cells and the other using U343MG cells. FaDu and U343MG cells were harvested and washed with PBS twice. The count was adjusted to 2 million/ml in HBSS. Boron compounds were added to cells at the final concentration of 2.5 mM in HBSS and the cells were incubated at 37° C., in a humidified 5% CO2 atmosphere for two (2) hrs. with shaking. Following a two (2) hour incubation, cells were harvested and washed twice with ice cold PBS. Cells were then suspended in 1 ml ice cold PBS and a portion (50 μl) was lysed in RIPA buffer and protein content determined by BCA assay. The remaining portion (950 μl) was subjected to nitric acid lysis (66.7% acid at 80° C.). Boron measurements were carried out using ICP-OES. Boronophenylalanine (as fructose solution) was used as a control.

U343MG cells = assay: Uptake of boron compounds in U343MG cells in vitro (Example 7); type: cell-based; conditions: 2.5 mM in HBSS, two (2) hrs; for uptake (boron) in U343MG cells: 37° C., boron by ICP-OES
Description: as §1

FaDu cells [2] = assay: Uptake of boron compounds in FaDu cells in vitro (Example 6); type: cell-based; conditions: 2.5 mM in HBSS, 37° C., two (2) hrs, boron by ICP-OES; compared with BPA (fructose solution)
Description: as §1, with “The” for “In this experiment, the uptake of BPA, FBH FBF, and LBH was carried out to determine which compounds show greater uptake FaDu and U343MG cells. The”, “Briefly,” for “Briefly, two (2) assays were performed, one using”, “FaDu” for “FaDu cells and the other using U343MG cells. FaDu and U343MG”

intracranial tumor = conditions: BNCT, beam directed to surgically exposed intracranial tumor, Japan 1968; cited from earlier work

Molecule: N[C@@H](Cc1ccc(B(O)O)cc1)C(=O)O [BPA, 4-Borono-L-phenylalanine, reference compound]
- uptake (boron) in FaDu cells (FaDu cells [1]): slightly lower uptake
- uptake (boron) in U343MG cells (U343MG cells): sufficient level uptake

Molecule: N[C@@H](Cc1ccccc1)[B-](F)(F)F.[K+] [FBF, [(1R)-1-amino-2-phenylethyl]trifluoroboranuide]
- uptake (boron) in FaDu cells (FaDu cells [1]): slightly lower uptake
- uptake relative to the other compounds, FaDu cells (FaDu cells [1]; versus BPA, FBH, LBH): marginally greater uptake than the other compounds
- uptake (boron) in U343MG cells (U343MG cells): sufficient level uptake
- uptake relative to the other compounds, U343MG cells (U343MG cells; versus BPA, FBH, LBH): marginally greater uptake than the other compounds

Molecule: N[C@@H](Cc1ccccc1)B(O)O [FBH, L-phenylalanine boronic acid]
- uptake (boron) in FaDu cells (FaDu cells [1]): slightly lower uptake
- uptake (boron) in U343MG cells (U343MG cells): sufficient level uptake

Molecule: CC(C)C[C@H](N)B(O)O [LBH, L-leucine boronic acid]
- uptake (boron) in FaDu cells (FaDu cells [1]): slightly lower uptake
- uptake (boron) in U343MG cells (U343MG cells): sufficient level uptake
- uptake (boron) in FaDu cells (FaDu cells [2]): lower

Molecule: un-decahydrododecaborane thiol [BSH]
- 5-year survival rate (intracranial tumor): 58%
